# How the values were obtained:
# Assay type in all cases: cell-based
# [1] = test system: human IgE; experiment: Degradation of initial and subsequent dose of target in HepG2 cells (Example 12, Table 30); settings: normalized to unconjugated
# Outline: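 HepG2 cells exposed 2 h to conjugate precomplexed (30 min, 37 °C, equimolar) with 647-quenched-probe human IgE, acid/ice washed, then given 488-probe IgE without conjugate for 4 h. Median 647 (initial) and 488 (recycled) fluorescence by flow cytometry, normalised to unconjugated parent; mean of two wells.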
# [2] = test system: recombinant IgE; experiment: Degradation of super-stoichiometric levels of target in HepG2 cells (Example 13, Table 31); settings: 1 nM conjugate and 25 nM IgE for three days, (A-B)/C IgE depleted relative to conjugate, average of two replicate wells
# Outline: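 HepG2 cells in EMEM/10% FBS were incubated with 1 nM conjugate plus 25 nM recombinant IgE for 72 h. IgE in medium at start and end quantified by MSD/ELISA-type assay; value is molar equivalents IgE depleted per conjugate, (initial − day-3 IgE)/conjugate concentration, mean of two wells.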
# [3] = test system: LysoLight-labelled human IgE; experiment: Lysosomal degradation of LysoLight-labelled IgE in HepG2 cells, live cell imaging (Example 7); settings: equimolar conjugate:LysoLight IgE, area under the curve of deep red fluorescence over three days, normalized to unconjugated parent protein
# Outline: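 Conjugate precomplexed 30 min at room temperature with equimolar LysoLight-labelled human IgE, added to Fc-receptor-blocked HepG2 cells at final 100–1.23 nM. Red fluorescence, released on lysosomal cathepsin cleavage, imaged hourly for 72 h starting 1 h post-addition; area under the fluorescence–time curve taken as total degradation.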
# [4] = test system: Alexa Fluor647 labelled human IgE; experiment: Uptake assay: internalization of Alexa Fluor 647 labelled IgE in wild type HepG2 cells (Example 6); settings: equimolar conjugate and AF647 IgE, 2 hours, median cellular AF647 intensity by flow cytometry, normalized to unconjugated parent protein
# Outline: (§1)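 HepG2 cells (wild type or ASGPR1/2 KO) pre-blocked with Fc receptor blocker, then exposed 2 h to conjugate precomplexed equimolar with AF647-labelled human IgE (30 min, room temperature) at 300 nM to 1.23 nM final. Median cellular AF647 by flow cytometry, normalized to unconjugated parent protein.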
# [5] = test system: HepG2 cells; experiment: Externalization of conjugates from a cell following internalization (cycling), high-throughput format (Example 11); settings: 50 nM conjugate 1 hour, stringent washes, Alexa Fluor 647-labelled a-human IgG 1 hour, FACS, normalized to unconjugated parent protein, average of two replicate wells
# Outline: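 25,000 HepG2 cells incubated with conjugate for 1 h at indicated concentrations, then chilled and washed (DPBS, pH 5.2 acetate, pH 2.5 EBSS) to strip surface conjugate. Recycled conjugate captured by 1 μg/ml AF647 anti-human IgG in 37 °C EMEM for 1 h; median AF647 by flow cytometry, mean of two wells.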
# [6] = test system: Alexa Fluor647 labelled human IgE; experiment: Uptake assay: internalization of Alexa Fluor 647 labelled IgE in ASGPR1/2 KO HepG2 cells (Example 6); settings: equimolar conjugate and AF647 IgE, normalized to unconjugated parent protein
# Outline: as §1
compound,measurement,setting,value
O=C(CCOCCOCCOCCNS(=O)(=O)c1ccc(N2C(=O)C=CC2=O)cc1)NC(CCCNC(=O)NCCOCCOCCCc1cncc(N[C@H]2CO[C@H](CO)[C@H](O)[C@@H]2O)n1)(CCCNC(=O)NCCOCCOCCCc1cncc(N[C@H]2CO[C@H](CO)[C@H](O)[C@@H]2O)n1)CCCNC(=O)NCCOCCOCCCc1cncc(N[C@H]2CO[C@H](CO)[C@H](O)[C@@H]2O)n1 [Compound 2303],Normalized Fluorescence Post Wash Median Green,"[1]; after wash, probe-conjugated IgE added for 4 hours, subsequent dose of target",3.6
same,Normalized Fluorescence Precomplex Median Deep Red,"[1]; precomplexed equimolar conjugate:IgE (cathepsin-cleavable quenched fluorescent probe) added for 2 hours, initial dose of target",3.4
same,Average Degradation (Molar equivalents),[2],3.6 Molar equivalents
same,Normalized Fluorescence 3.7 nM,[3]; 3.7 nM,10.2
same,Normalized Fluorescence 100 nM,[3]; 100 nM,3.7
same,Normalized Fluorescence 3.7 nM WT,[4]; 3.7 nM,70.6
same,Normalized Fluorescence 100 nM WT,[4]; 100 nM,232.7
same,Normalized Fluorescence,[5],52.7
same,Normalized Fluorescence 100 nM ASGPR KO,[6],1.1

# From patent publication US20260224714A1, “CYCLING LYSOSOMAL TARGETING ANTIBODY CONJUGATES” (Lycia Therapeutics, Inc., priority 2023, published 2026)
